Columns and labels:
blackgrass = assay: Test A postemergence herbicide test; format: in vivo, Alopecurus myosuroides
Summary of the method: (§1)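 Plants at the one- to two-leaf stage, 2–10 cm tall, grown in loam/sand pots, received postemergence sprays of the test chemicals. After about 10 days in the greenhouse, injury was scored visually against untreated controls on a 0–100 scale (0 none, 100 complete control).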

wheat = assay: Test A pre-/postemergence herbicide test; format: in vivo, Triticum aestivum; settings: Postemergence
Summary of the method: (§2)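 Seeds in loam–sand blend received preemergence directed soil spray; separately, plants 2–10 cm at one- to two-leaf stage received postemergence spray, both with test chemicals in non-phytotoxic solvent with surfactant. After ~10 days in greenhouse, injury rated visually against untreated controls, 0 (no effect) to 100 (complete control).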

barnyardgrass [1] = assay: Test B flooded paddy test; format: in vivo, Echinochloa crus-galli; settings: 500 g ai/ha, Flood; scale of 0 to 100 where 0 is no effect and 100 is complete control
Summary of the method: (§3)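 Scoring: visual, compared with untreated controls, 0 = no effect through 100 = complete control, taken 13 to 15 days after treatment in the greenhouse. Compounds had been added to paddy water over soil flooded 3 cm deep at the plants' 2-leaf stage.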

ducksalad = assay: Test B flooded paddy test; format: in vivo, Heteranthera limosa; settings: 500 g ai/ha, Flood; scale of 0 to 100 where 0 is no effect and 100 is complete control
Summary of the method: as §3

corn = assay: Test A pre-/postemergence herbicide test; format: in vivo, Zea mays; settings: Postemergence
Summary of the method: as §2

pigweed = assay: Test A pre-/postemergence herbicide test; format: in vivo, Amaranthus retroflexus
Summary of the method: as §2

rice = assay: Test B flooded paddy test; format: in vivo, Oryza sativa; settings: 500 g ai/ha, Flood; scale of 0 to 100 where 0 is no effect and 100 is complete control
Summary of the method: as §3

giant foxtail = assay: Test A pre-/postemergence herbicide test; format: in vivo, Setaria faberii
Summary of the method: as §2

ragweed = assay: Test A pre-/postemergence herbicide test; format: in vivo, Ambrosia elatior
Summary of the method: as §2

kochia = assay: Test A pre-/postemergence herbicide test; format: in vivo, Kochia scoparia
Summary of the method: as §2

barnyardgrass [2] = assay: Test A pre-/postemergence herbicide test; format: in vivo, Echinochloa crus-galli
Summary of the method: as §2

sedge, umbrella = assay: Test B flooded paddy test; format: in vivo, Cyperus difformis; settings: 500 g ai/ha, Flood; scale of 0 to 100 where 0 is no effect and 100 is complete control
Summary of the method: as §3

ryegrass, Italian = assay: Test A pre-/postemergence herbicide test; format: in vivo, Lolium multiflorum
Summary of the method: as §2

galium = assay: Test A postemergence herbicide test; format: in vivo, Galium aparine
Summary of the method: as §1

[3] = 125 g ai/ha, 0 to 100 scale, 0 is no effect, 100 is complete control
[4] = 125 g ai/ha, visual rating, 0 to 100 scale, 0 no effect, 100 complete control, approximately 10 days, preemergence
[5] = Postemergence, 125 g ai/ha, 0 to 100 scale, 0 is no effect, 100 is complete control
[6] = preemergence, 500 g ai/ha, 0 to 100 scale, 0 is no effect and 100 is complete control
[7] = 125 g ai/ha, visual rating on 0 to 100 scale (0 no effect, 100 complete control), approx. 10 days
[8] = 500 g ai/ha, 0 to 100 scale (0 no effect, 100 complete control)
[9] = Postemergence, 125 g ai/ha, visual rating on 0 to 100 scale (0 no effect, 100 complete control), approx. 10 days
[10] = Postemergence, 500 g ai/ha, 0 to 100 scale (0 no effect, 100 complete control)
[11] = Preemergence, 125 g ai/ha, 0 to 100 scale where 0 is no effect and 100 is complete control
[12] = Preemergence, 500 g ai/ha, visual rating on 0 to 100 scale (0 no effect, 100 complete control)

O=C1NCC(c2cccc(C3CC3)c2)C1C(=O)Nc1ccccc1F (racemic) [Compound 166]
Plant response rating, Blackgrass (blackgrass; [3]): 50 | Blackgrass plant response rating (0 to 100 scale, 0 is no effect, 100 is complete control) (blackgrass; 500 g ai/ha): 60 | Plant response rating, Wheat (wheat; [3]): 20 | Wheat plant response rating (0 to 100 scale, 0 is no effect, 100 is complete control) (wheat; 500 g ai/ha): 50 | Plant response rating, Barnyardgrass (barnyardgrass [1]): 75 | Plant response rating, Ducksalad (ducksalad): 100 | Plant response rating, Corn (corn; [3]): 30 | Corn plant response rating (0 to 100 scale, 0 is no effect, 100 is complete control) (corn; 500 g ai/ha): 80 | Plant response rating, Pigweed (pigweed; [4]): 0 | Plant response rating, Pigweed (pigweed; [5]): 40 | Pigweed plant response rating (0 to 100 scale, 0 is no effect, 100 is complete control) (pigweed; Postemergence, 500 g ai/ha): 50 | Plant response rating, Pigweed (pigweed; [6]): 10 | Plant response rating, Rice (rice): 0 | Plant response rating, Foxtail, Giant (giant foxtail; [4]): 90 | Plant response rating, Foxtail, Giant (giant foxtail; [5]): 80 | Foxtail, Giant plant response rating (0 to 100 scale, 0 is no effect, 100 is complete control) (giant foxtail; Postemergence, 500 g ai/ha): 90 | Plant response rating, Foxtail, Giant (giant foxtail; preemergence, 500 g ai/ha, 0 to 100 scale): 90 | Plant response rating, Ragweed (ragweed; [4]): 0 | Plant response rating, Ragweed (ragweed; [5]): 0 | Ragweed plant response rating (0 to 100 scale, 0 is no effect, 100 is complete control) (ragweed; Postemergence, 500 g ai/ha): 0 | Plant response rating, Ragweed (ragweed; [6]): 50 | Plant response rating, Kochia (kochia; [4]): 30 | Plant response rating, Kochia (kochia; [5]): 30 | Kochia plant response rating (0 to 100 scale, 0 is no effect, 100 is complete control) (kochia; Postemergence, 500 g ai/ha): 70 | Plant response rating, Kochia (kochia; [6]): 70 | Plant response rating, Barnyardgrass (barnyardgrass [2]; [4]): 80 | Plant response rating, Barnyardgrass (barnyardgrass [2]; [5]): 80 | Barnyardgrass plant response rating (0 to 100 scale, 0 is no effect, 100 is complete control) (barnyardgrass [2]; Postemergence, 500 g ai/ha): 80 | Plant response rating, Barnyardgrass (barnyardgrass [2]; preemergence, 500 g ai/ha, 0 to 100 scale (0 no effect, 100 complete control)): 90 | Plant response rating, Sedge, Umbrella (sedge, umbrella): 0 | Plant response rating, Ryegrass, Italian (ryegrass, Italian; [4]): 20 | Plant response rating, Ryegrass, Italian (ryegrass, Italian; [5]): 0 | Ryegrass, Italian plant response rating (0 to 100 scale, 0 is no effect, 100 is complete control) (ryegrass, Italian; Postemergence, 500 g ai/ha): 50 | Plant response rating, Ryegrass, Italian (ryegrass, Italian; [6]): 60 | Plant response rating, Galium (galium; [3]): 20 | Galium plant response rating (0 to 100 scale, 0 is no effect, 100 is complete control) (galium; 500 g ai/ha): 60

O=C1NCC(c2cccc(I)c2)C1C(=O)Nc1ccccc1C(F)(F)F (stereo not drawn) [Compound 328]
Plant response rating, Blackgrass (blackgrass; [7]): 30 | Plant response rating, Blackgrass (blackgrass; [8]): 40 | Plant response rating, Wheat (wheat; [7]): 0 | Plant response rating, Wheat (wheat; [8]): 0 | Plant response rating, Barnyardgrass (barnyardgrass [1]): 0 | Plant response rating, Ducksalad (ducksalad): 35 | Plant response rating, Corn (corn; [7]): 0 | Plant response rating, Corn (corn; [8]): 0 | Plant response rating, Pigweed (pigweed; [9]): 0 | Plant response rating, Pigweed (pigweed; [10]): 0 | Plant response rating, Pigweed (pigweed; [11]): 0 | Pigweed plant response rating (pigweed; [12]): 0 | Plant response rating, Rice (rice): 0 | Plant response rating, Foxtail, Giant (giant foxtail; [9]): 70 | Plant response rating, Foxtail, Giant (giant foxtail; [10]): 80 | Plant response rating, Foxtail, Giant (giant foxtail; [11]): 80 | Foxtail, Giant plant response rating (giant foxtail; [12]): 90 | Plant response rating, Ragweed (ragweed; [9]): 0 | Plant response rating, Ragweed (ragweed; [10]): 0 | Plant response rating, Ragweed (ragweed; [11]): 0 | Ragweed plant response rating (ragweed; [12]): 0 | Plant response rating, Kochia (kochia; [9]): 0 | Plant response rating, Kochia (kochia; [10]): 20 | Plant response rating, Kochia (kochia; [11]): 0 | Kochia plant response rating (kochia; [12]): 20 | Plant response rating, Barnyardgrass (barnyardgrass [2]; [9]): 30 | Plant response rating, Barnyardgrass (barnyardgrass [2]; [10]): 80 | Plant response rating, Barnyardgrass (barnyardgrass [2]; [11]): 40 | Barnyardgrass plant response rating (barnyardgrass [2]; [12]): 80 | Plant response rating, Sedge, Umbrella (sedge, umbrella): 0 | Plant response rating, Ryegrass, Italian (ryegrass, Italian; [9]): 0 | Plant response rating, Ryegrass, Italian (ryegrass, Italian; [10]): 20 | Plant response rating, Ryegrass, Italian (ryegrass, Italian; [11]): 0 | Ryegrass, Italian plant response rating (ryegrass, Italian; [12]): 40 | Plant response rating, Galium (galium; [7]): 20 | Plant response rating, Galium (galium; [8]): 50

O=C1NCC(c2ccc(OC(F)F)cc2)C1C(=O)Nc1ccccc1F (stereo not drawn) [Compound 349]
Plant response rating, Blackgrass (blackgrass; [7]): 20 | Plant response rating, Blackgrass (blackgrass; [8]): 40 | Plant response rating, Wheat (wheat; [7]): 0 | Plant response rating, Barnyardgrass (barnyardgrass [1]): 40 | Plant response rating, Ducksalad (ducksalad): 90 | Plant response rating, Corn (corn; [7]): 0 | Plant response rating, Corn (corn; [8]): 20 | Plant response rating, Pigweed (pigweed; [9]): 0 | Plant response rating, Pigweed (pigweed; [11]): 0 | Pigweed plant response rating (pigweed; [12]): 40 | Plant response rating, Rice (rice): 0 | Plant response rating, Foxtail, Giant (giant foxtail; [9]): 60 | Plant response rating, Foxtail, Giant (giant foxtail; [10]): 90 | Plant response rating, Foxtail, Giant (giant foxtail; [11]): 80 | Foxtail, Giant plant response rating (giant foxtail; [12]): 90 | Plant response rating, Ragweed (ragweed; [9]): 0 | Plant response rating, Ragweed (ragweed; [11]): 0 | Ragweed plant response rating (ragweed; [12]): 40 | Plant response rating, Kochia (kochia; [9]): 40 | Plant response rating, Kochia (kochia; [11]): 50 | Kochia plant response rating (kochia; [12]): 80 | Plant response rating, Barnyardgrass (barnyardgrass [2]; [9]): 80 | Plant response rating, Barnyardgrass (barnyardgrass [2]; [10]): 90 | Plant response rating, Barnyardgrass (barnyardgrass [2]; [11]): 70 | Barnyardgrass plant response rating (barnyardgrass [2]; [12]): 90 | Plant response rating, Sedge, Umbrella (sedge, umbrella): 0 | Plant response rating, Ryegrass, Italian (ryegrass, Italian; [9]): 0 | Plant response rating, Ryegrass, Italian (ryegrass, Italian; [11]): 0 | Ryegrass, Italian plant response rating (ryegrass, Italian; [12]): 0 | Plant response rating, Galium (galium; [7]): 20

Reference: patent US10294202B2, “Pyrrolidinones as herbicides” (FMC Corporation, priority 2013, dated 2019)
